The values that follow come from ChEMBL document CHEMBL1131083, “Tipranavir (PNU-140690): a potent, orally bioavailable nonpeptidic HIV protease inhibitor of the 5,6-dihydro-4-hydroxy-2-pyrone sulfonamide class” (J Med Chem, 1998).

The target in assay [1] is Human immunodeficiency virus type 1 protease (Human immunodeficiency virus 1, UniProt Q72874). The experiment in a line: Inhibitory activity against HIV-1 protease in tandem assay.
The nature of assay [2]: Inhibition of HIV-1 protease in a cell culture assay using HIV-1 IIIB infected H9 cells.
The target of assay [3] is Human immunodeficiency virus type 1 protease (Human immunodeficiency virus 1) (UniProt Q72874). The experiment in a line: Inhibition of HIV-1 protease in a cell culture assay using HIV-1 IIIB infected H9 cells. It is filed as functional, cell-based.
The test system of assay [4] is H9. Put plainly: Inhibitory activity against HIV-1 Protease in a cell culture assay using HIV-1 IIIB infected H9 cells at 3 uM. It is filed as functional. The conditions noted are these: Homo sapiens.
The test system of assay [5] is H9. Put plainly: Inhibitory activity against HIV-1 Protease in a cell culture assay using HIV-1 IIIB infected H9 cells at 1 uM. It is filed as functional. The settings on record: Homo sapiens.
For assay [6], the target named is Human immunodeficiency virus type 1 protease (Human immunodeficiency virus 1) (UniProt Q72874). Put plainly: Inhibitory activity against HIV-1 Protease in tandem assay. The conditions noted are these: concentration not given here.

Turning to `CCCC1(CCc2ccccc2)CC(=O)C(C(CC)c2cccc(NS(=O)(=O)c3ccc(C#N)cc3)c2)=C(O)O1` (stereo not given), in assay [1], the Ki – broadly, the dissociation constant of the complex between target and ligand, obtained from inhibition or displacement – came out at 8.2 nM. Also, the IC50 (usually the concentration needed to halve the response being measured) in assay [2] came to 1100 nM.

In assay [2], `CCCC1(CCc2ccccc2)CC(=O)C(C(CC)c2cccc(NS(=O)(=O)c3ccccc3)c2)=C(O)O1` (stereo not given) returned an IC50 of 1600 nM. For `CCCC1(CCc2ccccc2)CC(=O)C(C(c2cccc(NS(=O)(=O)c3ccc(N)cn3)c2)C(C)(C)C)=C(O)O1` (stereo not given), in assay [3], the concentration for an effect of 90% (IC90) (as a rule, the point of the concentration-response curve where the effect stands at 90%) was 740 nM. The Ki in assay [1] came to 0.2 nM. As to `CCC[C@@]1(CCc2ccccc2)CC(O)=C([C@H](CC)c2cccc(NS(=O)(=O)c3ccc(C#N)cn3)c2)C(=O)O1`, the IC50 in assay [2] came out at 40 nM. In assay [3], `CCCC1(CCc2ccc(F)cc2)CC(=O)C(C(CC)c2cccc(NS(=O)(=O)c3cn(C)cn3)c2)=C(O)O1` (stereo not given) gave a 90% effect concentration (IC90) of 2000 nM. Affinity in assay [1] was put at a Ki of 3 nM. For `CCCC1(CCc2ccccc2)CC(=O)C(C(CC)c2cccc(NS(=O)(=O)c3ccc(C#N)cn3)c2)=C(O)O1` (stereo not given) the same measures were 470 nM and 0.1 nM. As to `CCCC1(CCc2ccccc2)CC(=O)C(C(CC)c2cccc(NS(=O)(=O)c3cn(C)cn3)c2)=C(O)O1` (stereo not given), the Ki in assay [1] came out at 1.2 nM. `CCC[C@]1(CCc2ccccc2)CC(=O)C(C(CC)c2cccc(NS(=O)(=O)c3ccc(C(F)(F)F)cn3)c2)=C(O)O1` (stereo not given in full): in assay [3], the IC90 came out at 840 nM. The same compound displayed a Ki in assay [1] of 0.018 nM. For `CCCC1(CCc2ccccc2)CC(=O)C(C(c2cccc(NS(=O)(=O)c3cn(C)cn3)c2)C(C)(C)C)=C(O)O1` (stereo not given), in that order: 690 nM and 1.2 nM. For `CCC(C1=C(O)OC(CC(C)C)(CC(C)C)CC1=O)c1cccc(NS(=O)(=O)c2cn(C)cn2)c1` (stereo not given) the same measures were 7400 nM and 3 nM. For `CCCCCC1(CCCCC)CC(=O)C(C(CC)c2cccc(NS(=O)(=O)c3cn(C)cn3)c2)=C(O)O1` (stereo not given), in that order: less than 3000 nM and 2.6 nM.

For the compound `CCCC1(CCC)CC(=O)C(C(c2cccc(NS(=O)(=O)c3cn(C)cn3)c2)C2CC2)=C(O)O1` (stereo not given), in assay [3], the 90% effect level (IC90) was put at 3000 nM. In assay [1], this compound displayed a Ki of 0.52 nM.

In turn, `CCC(C1=C(O)OC(C23C[C@H]4C[C@@H](C2)C[C@@H](C3)C4)CC1=O)c1cccc(NS(=O)(=O)c2cn(C)cn2)c1` (stereo not given in full) registered a Ki in assay [1] of 23 nM.

`CCC[C@]1(CCc2ccccc2)CC(=O)C([C@H](CC)c2cccc(NS(=O)(=O)c3cn(C)cn3)c2)=C(O)O1`: the IC90 in assay [3] was 1000 nM. The Ki in assay [1] was determined as 0.12 nM.

`CCCC1(CCc2ccccc2)CC(=O)C(C(CC)c2cccc(NS(=O)(=O)c3cccc4cccnc34)c2)=C(O)O1` (stereo not given) registered a Ki in assay [1] of 3.1 nM. In addition, in assay [2], the IC50 came out at 1000 nM.

For the compound `CCC(C1=C(O)OC(COCCOCCOC)(COCCOCCOC)CC1=O)c1cccc(NS(=O)(=O)c2cn(C)cn2)c1` (stereo not given), the inhibition (commonly how much of the control response was suppressed) at 3 µM in assay [4] was 0%. Further, the Ki in assay [1] came to 28 nM.

Turning to `CCC(C1=C(O)OC(CCc2ccccc2)(CCc2ccccc2)CC1=O)c1cccc(NS(=O)(=O)c2cn(C)cn2)c1` (stereo not given), the IC90 in assay [3] was determined as 2000 nM. In assay [1], the Ki came out at 1 nM.

Turning to `CCC[C@@]1(CCc2ccccc2)CC(=O)C([C@@H](CC)c2cccc(NS(=O)(=O)c3ccc(C(F)(F)F)cn3)c2)=C(O)O1` (stereo in doubt; 39d), 410 nM corresponded to half-maximal inhibition in assay [2] (IC50).

As for `CCCC1(CCC)CC(=O)C(C(c2cccc(NS(=O)(=O)c3cn(C)cn3)c2)C(C)(C)C)=C(O)O1` (stereo not given), the concentration for an effect of 90% (IC90) in assay [3] amounted to 1000 nM. This compound also registered a Ki in assay [1] of 0.87 nM. For the compound `CCCC1(CCc2ccccc2)CC(=O)C(C(c2cccc(NS(=O)(=O)c3cn(C)cn3)c2)C2CC2)=C(O)O1` (stereo not given), the IC90 in assay [3] amounted to 1000 nM. In assay [1], this compound came in with a Ki of 0.71 nM. For `CCCC1(CCc2ccccc2)CC(=O)C(C(c2cccc(NS(=O)(=O)c3ccc(C(F)(F)F)cn3)c2)C(C)(C)C)=C(O)O1` (stereo not given), in that order: 990 nM and 4.3 nM.

`CCCC1(CCc2ccccc2)CC(=O)C(C(CC)c2cccc(NS(=O)(=O)CCC)c2)=C(O)O1` (stereo not given) came in with a Ki in assay [1] of more than 1 nM. As for `CCC[C@@]1(CCc2ccccc2)CC(=O)C([C@@H](CC)c2cccc(NS(=O)(=O)c3cn(C)cn3)c2)=C(O)O1`, in assay [3], the IC90 is more than 1000 nM. In assay [1], this compound gave a Ki of 0.3 nM. For `CCCC1(CCc2ccccc2)CC(=O)C(C(c2cccc(NS(=O)(=O)c3ccc([N+](=O)[O-])cn3)c2)C(C)(C)C)=C(O)O1` (stereo not given) the same measures were more than 3000 nM and 2.3 nM. For `CCCC1(CCc2ccccc2)CC(=O)C(C(c2cccc(NS(=O)(=O)c3ccc(C#N)cn3)c2)C(C)(C)C)=C(O)O1` (stereo not given), in that order: 340 nM and 1.9 nM. On to `CCC[C@]1(CCc2ccccc2)CC(=O)C([C@H](CC)c2cccc(NS(=O)(=O)c3ccc(C#N)cn3)c2)=C(O)O1`, for which, in assay [3], it took 890 nM to reach the 90% level (IC90). The same compound returned a Ki in assay [1] of 0.04 nM.

As to `CCCC1(CCc2ccccc2)CC(=O)C(C(c2cccc(NS(=O)(=O)c3ccc(C#N)cc3)c2)C(C)(C)C)=C(O)O1` (stereo not given), it took 3000 nM to reach the 90% level in assay [3] (IC90). In assay [1], this compound registered an inhibition constant Ki of 12 nM. Compound `CCCC1(CCc2ccccc2)CC(=O)C(Cc2cccc(NS(=O)(=O)c3cn(C)cn3)c2)=C(O)O1` (stereo not given) registered an inhibition at 1 µM in assay [5] of 0%. In assay [1], this compound gave a Ki of 13 nM. In assay [1], `CCC[C@@]1(CCc2ccccc2)CC(O)=C([C@H](CC)c2cccc(NS(=O)(=O)c3ccc(C(F)(F)F)cn3)c2)C(=O)O1` [TIPRANAVIR] had a Ki of 0.008 nM. Half-maximal inhibition in assay [2] (IC50) required 30 nM. In assay [3], `CCCC1(CCC)CC(=O)C(C(CC)c2cccc(NS(=O)(=O)c3cn(C)cn3)c2)=C(O)O1` (stereo not given) gave an IC90 of 2000 nM. Moreover, the Ki in assay [1] amounted to 1.8 nM. On to `CCC(C1=C(O)OC(CCC2CC2)(CCC2CC2)CC1=O)c1cccc(NS(=O)(=O)c2cn(C)cn2)c1` (stereo not given), for which the IC90 in assay [3] amounted to 2900 nM. The affinity in assay [1] corresponds to a Ki of 1.7 nM.

The compound `CCC[C@@]1(CCc2ccccc2)CC(=O)C([C@@H](CC)c2cccc(NS(=O)(=O)c3ccc(C(F)(F)F)cn3)c2)=C(O)O1` (stereo in doubt; 39c) displayed an IC50 in assay [2] of 1700 nM. In assay [1], `CCCC1(CCc2ccccc2)CC(=O)C(C(CC)c2cccc(NS(=O)(=O)c3ccc(F)cc3)c2)=C(O)O1` (stereo not given) displayed a Ki of 6.1 nM. In assay [2], this compound returned an IC50 of 1200 nM. In the case of `CCC[C@@]1(CCc2ccccc2)CC(=O)C([C@H](CC)c2cccc(NS(=O)(=O)c3cn(C)cn3)c2)=C(O)O1`, in assay [3], the IC90 turned out to be 560 nM. In addition, the Ki in assay [1] amounted to 0.06 nM.

As to `CCCC1(CCC)CC(=O)C(Cc2cccc(NS(=O)(=O)c3cn(C)cn3)c2)=C(O)O1`, the inhibition at 3 µM in assay [4] is 5%. In assay [6], this compound displayed an inhibition of 50%. `CCC[C@@]1(CCc2ccccc2)CC(=O)C([C@@H](CC)c2cccc(NS(=O)(=O)c3ccc(C#N)cn3)c2)=C(O)O1` showed an IC90 in assay [3] of 1000 nM. The affinity in assay [1], expressed as Ki, was 0.1 nM.
